# Data from patent publication US10047105B2, “Gyrase inhibitors” (Merck Sharp & Dohme Corp., priority 2009, dated 2018).
# Assays:
# S. aureus ATCC 13709 = assay: MIC, antibacterial potency, S. aureus; assay type: cell-based
# S. pneumoniae ATCC 51916 = assay: MIC, S. pneumoniae; assay type: cell-based
# [1] = S. pneumoniae (Spn52), in µg/mL
Compound,"MIC, SA (S. aureus ATCC 13709; S. aureus)",MIC Spn52 (S. pneumoniae ATCC 51916; S. pneumoniae),"MIC, SA (S. aureus ATCC 13709; S. aureus (SA), in µg/mL)",MIC Spn52 (S. pneumoniae ATCC 51916; [1])
"CCOc1nc(Sc2cc(=O)[nH]c(=O)[nH]2)nc2[nH]c(CC)c(Cl)c12 [700,347, 6-(5-chloro-4-ethoxy-6-ethyl-7H-pyrrolo[2,3-d]pyrimidin-2-ylthio)pyrimidine-2,4(1H,3H)-dione]",1 µg/mL,8 µg/mL,,
"CCc1[nH]c2nc(Oc3cccnc3)nc(Oc3cccnc3)c2c1C(F)(F)F.O=C(O)C(F)(F)F [700,654]",> 64 µg/mL,> 64 µg/mL,,
"CCOc1nc(Sc2nc(C(=O)OC)c(C(C)C)s2)nc2[nH]c(CC)c(Cl)c12 [700,304]",8 µg/mL,32 µg/mL,,
"CCOC(=O)Cc1nc(N)c2ncc(Sc3nc(N4CC(O)C4)c4c(Cl)c(CC)[nH]c4n3)cc2n1.O=C(O)C(F)(F)F.O=C(O)C(F)(F)F [700,473]",32 µg/mL,64 µg/mL,,
"CCc1[nH]c2nc(Sc3cnc4nccnc4c3)nc(N3CC[C@@H](C)[C@@H](N)C3)c2c1Cl [700,595]",8 µg/mL,8 µg/mL,,
"CCc1[nH]c2nc(Sc3cc(=O)n(CCC(F)(F)F)c(=O)[nH]3)nc(N3CC(O)C3)c2c1Br [700,415]",≤ 0.5 µg/mL,1 µg/mL,,
"CCNC(=O)NC1CN(c2nc(Sc3cnc4nccnc4c3)nc3[nH]c(CC)c(Cl)c23)C1 [700,490]",> 64 µg/mL,1 µg/mL,,
"C=CCc1nc(Oc2ccc(Cl)c(C#N)c2)nc2[nH]c(CC)c(Cl)c12 [700,832]",,,4,>8
"CCOc1nc(Nc2cccc(C(=O)O)c2)nc2[nH]c(CC)c(Br)c12.O=C(O)C(F)(F)F [700,354]",2 µg/mL,> 64 µg/mL,,
"CCc1[nH]c2nc(Sc3cnc4nccnc4c3)nc(N3CC(CN(C)C)C3)c2c1Cl.O=C(O)C(F)(F)F.O=C(O)C(F)(F)F [700,602]",4 µg/mL,4 µg/mL,,
"CCc1[nH]c2nc(Sc3ccc4c(NC)ncnc4c3)nc(N3CCC(N)C3)c2c1Cl (stereo not shown) [700,576]",8 µg/mL,16 µg/mL,,
"CCc1[nH]c2nc(Sc3cnc4cccnc4n3)nc(N3CC(O)C3)c2c1Br [700,346]",≤ 0.5 µg/mL,≤ 0.5 µg/mL,,
"CCc1[nH]c2nc(Sc3cnc4nccnc4c3)nc(N3CC(NC(=O)c4cc(N)ccn4)C3)c2c1Cl [700,454]",≤ 0.5 µg/mL,1 µg/mL,,
"CCc1[nH]c2nc(Sc3cnc4nccnc4c3)nc(N3CCNCC3)c2c1Cl.O=C(O)C(F)(F)F [700,791]",,,64,16
"CCc1[nH]c2nc(Sc3cnc4nccnc4c3)nc(N3CCC4(CCNCC4)C3)c2c1Cl [700,900]",,,8,8
"CCNC(=O)NCC1CN(c2nc(Sc3cnc4nccnc4c3)nc3[nH]c(CC)c(Cl)c23)C1 [700,491]",≤ 0.5 µg/mL,1 µg/mL,,
"CCc1[nH]c2nc(Sc3cnc4nccnc4c3)nc(NCCCn3ccnc3)c2c1Cl [700,455]",2 µg/mL,2 µg/mL,,
"CCc1[nH]c2nc(Sc3cccnc3)nc(NCCNc3ccc(C(=O)O)cn3)c2c1C=O [700,287]",> 64 µg/mL,> 64 µg/mL,,
"CCOc1nc(S(C)(=O)=O)nc2[nH]c(CC)c(Br)c12 [700,288]",> 64 µg/mL,64 µg/mL,,
"CCc1[nH]c2nc(Nc3cnc4c(c3)nnn4CC3CC3)nc(N3CC(O)C3)c2c1Br.O=C(O)C(F)(F)F [700,498]",16 µg/mL,> 64 µg/mL,,
"CCc1[nH]c2nc(Sc3cnc4nccnc4c3)nc(N(C)CC(O)C(O)C(O)C(O)CO)c2c1Cl (stereo not shown) [700,431]",> 64 µg/mL,> 64 µg/mL,,
"CCc1[nH]c2nc(Sc3cnc4nccnc4c3)nc(NCCNC(=O)OC(C)(C)C)c2c1Cl.O=C(O)C(F)(F)F [700,508]",2 µg/mL,4 µg/mL,,
"CCc1[nH]c2nc(Sc3cnc4nccnc4c3)nc(N3CC(NC(=O)C4CNC4)C3)c2c1Cl [700,842]",,,4,>64
"CCOc1nc(Nc2cccnc2)nc2[nH]c(CC)c(Br)c12 [700,331]",8 µg/mL,> 64 µg/mL,,
"CCOc1nc(Sc2ncc(C(=O)O)s2)nc2[nH]c(CC)c(Br)c12 [700,293]",32 µg/mL,32 µg/mL,,
"CCc1[nH]c2nc(Sc3cnc4ccoc4c3)nc(N3CCC(N)C3)c2c1Cl.O=C(O)C(F)(F)F (stereo not shown) [700,676]",4 µg/mL,8 µg/mL,,
"CCc1[nH]c2nc(Sc3cnc4c(N)nc(C)nc4c3)nc(OCCn3ccnc3)c2c1Cl.O=C(O)C(F)(F)F [700,494]",> 64 µg/mL,> 64 µg/mL,,

Compound,"MIC, SA (S. aureus ATCC 13709; S. aureus)",MIC Spn52 (S. pneumoniae ATCC 51916; S. pneumoniae),"MIC, SA (S. aureus ATCC 13709; S. aureus (SA), in µg/mL)",MIC Spn52 (S. pneumoniae ATCC 51916; [1])
"CCc1[nH]c2nc(Sc3cnc4c(N)nc(C)nc4c3)nc(N3CC(N)C3)c2c1Cl.O=C(O)C(F)(F)F [700,515]",1 µg/mL,1 µg/mL,,
"CCc1[nH]c2nc(Sc3ccc(C#N)c(F)c3)nc(N3CC[C@@H](N)C3)c2c1Cl.O=C(O)C(F)(F)F [700,666]",2 µg/mL,4 µg/mL,,
"CCc1[nH]c2nc(Oc3cnc4ccoc4c3)nc(Oc3cnc4ccoc4c3)c2c1Cl.O=C(O)C(F)(F)F [700,650]",≤ 0.5 µg/mL,1 µg/mL,,
"CCc1[nH]c2nc(Sc3nc(C(=O)O)cs3)nc(N3CC(F)(F)C3)c2c1Cl.O=C(O)C(F)(F)F [700,338]",8 µg/mL,64 µg/mL,,
"CCc1[nH]c2nc(Sc3cncc(N)c3)nc(N3CC[C@@H](N)C3)c2c1Cl [700,820]",,,16,32
"CCc1[nH]c2nc(Sc3cnc4c(c3)ncc(=O)n4CCO)nc(N3CC[C@@H](N)C3)c2c1Cl [700,798]",,,16,32
"CCc1[nH]c2nc(Sc3cnc4c(N)nc(N)nc4c3)nc(OCCn3ccnc3)c2c1Cl.O=C(O)C(F)(F)F.O=C(O)C(F)(F)F [700,493]",> 64 µg/mL,> 64 µg/mL,,
"CCc1[nH]c2nc(Sc3cnc4c(NCC5OCCO5)nc(C)nc4c3)nc(N3CC[C@@H](N)C3)c2c1Cl [700,894]",,,32,8
"CCc1[nH]c2nc(Sc3nc(C(=O)O)cs3)nc(NCCCNC(=N)N)c2c1Cl.O=C(O)C(F)(F)F [700,343]",> 64 µg/mL,> 64 µg/mL,,
"CCc1[nH]c2nc(Sc3cnc4nccnc4c3)nc(N3CC4CCNC4C3)c2c1Cl.O=C(O)C(F)(F)F (stereo not shown) [700,563]",1 µg/mL,2 µg/mL,,
"CCc1[nH]c2nc(Sc3ccc4c(N5CC(CN)C5)ncnc4c3)nc(N3CC[C@@H](N)C3)c2c1Cl [700,904]",,,32,>64
"CCc1[nH]c2nc(Sc3cnc(N)nc3)nc(N3CC4C(N)C4C3)c2c1Cl (stereo not shown) [700,789]",,,2,8
"CCOc1nc(Nc2cnc3c(cnn3C(C)C)c2)nc2[nH]c(CC)c(Cl)c12.O=C(O)C(F)(F)F [700,406]",2 µg/mL,16 µg/mL,,
"CCc1[nH]c2nc(Sc3ccc4c(N5CC[C@@H](N)C5)cc(C)nc4c3)nc(N3CC[C@@H](N)C3)c2c1Cl [700,843]",,,64,>64
"CCc1[nH]c2nc(Sc3cnc4cccnc4c3)nc(N3CC[C@H](O)[C@H]3CO)c2c1Cl [700,659]",4 µg/mL,2 µg/mL,,
"CCc1[nH]c2nc(Sc3cc(=O)n(C)c(=O)[nH]3)nc(N3CC(N)C3)c2c1Br.O=C(O)C(F)(F)F [700,545]",2 µg/mL,4 µg/mL,,
"CCc1[nH]c2nc(Cc3cccnc3)nc(Oc3cccnc3)c2c1Cl [700,479]",4 µg/mL,32 µg/mL,,
"CCc1[nH]c2nc(Sc3cnc4nccnc4c3)nc(N3CC(NC(=O)c4cnc[nH]4)C3)c2c1Cl [700,449]",1 µg/mL,1 µg/mL,,
"CCc1[nH]c2nc(Sc3cnc4nccnc4c3)nc(N3CC(N)C4(CC4)C3)c2c1Cl.O=C(O)C(F)(F)F (stereo not shown) [700,678]",1 µg/mL,2 µg/mL,,
"CCc1[nH]c2nc(Sc3cnc4nccnc4c3)nc(NCCNC)c2c1Cl.O=C(O)C(F)(F)F [700,512]",> 64 µg/mL,> 64 µg/mL,,
"CCc1[nH]c2nc(Sc3cnc4nccnc4c3)nc(Oc3cncc(OC)c3)c2c1Cl [700,686]",> 64 µg/mL,> 64 µg/mL,,
"CCc1[nH]c2nc(Sc3cnc4sc(NC(C)=O)nc4c3)nc(N3CC(N)C3)c2c1Br [700,471]",2 µg/mL,8 µg/mL,,
"CCc1[nH]c2nc(Sc3cnc4cccnc4c3)nc(N3C[C@@H]4[C@H](C3)[C@@]4(N)CN)c2c1Cl [700,885]",,,2,4
"CCc1[nH]c2nc(Sc3cnc4cccnc4c3)nc(N3C[C@@H]4[C@H](C3)[C@H]4N(Cc3ccccc3)Cc3ccccc3)c2c1Cl [700,823]",,,64,64
"CCOc1nc(Nc2cnc3c(c2)nnn3C(C)C)nc2[nH]c(CC)c(Br)c12.O=C(O)C(F)(F)F [700,450]",≤ 0.5 µg/mL,4 µg/mL,,
"CCc1[nH]c2nc(Oc3cncc(C#N)c3)nc(Oc3cccc(C(=O)O)c3)c2c1Cl [700,828]",,,>64,>64
